Test results from paper PMC12794516, “Modulation of endothelial-to-mesenchymal transition via NRP-1 targeting with melittin attenuates pulmonary fibrosis” (Materials Today Bio, 2025).

Experiments:
NRP-1 receptor on HUVECs = experiment: In vitro cell targeting (uptake of MLT-RhB, flow cytometry and confocal imaging); assay type: cell-based, Human; settings: flow cytometry; HUVECs with TGF-β1 10 ng/mL 48 h; MLT-RhB 2 μg/mL 1 h; n = 3
Protocol: To assess the NRP-1 receptor-targeting ability of MLT, HUVECs were seeded into 96-well plates at a density of 1.5 × 10^4 cells per well and cultured overnight in complete growth medium. TGF-β1 (10 ng/mL) was added to all groups except the control group and incubated for 48 h. Subsequently, each group was treated with the RPARPAR peptide (0.5 mM) for 1 h, followed by the addition of MLT-RhB (2 μg/mL) for an additional hour. For flow cytometry, cells were processed and analyzed using a flow cytometer (Dakewe Biotech Co., Ltd., China), and data were analyzed with FlowJo software (FlowJo, Ashland, OR, USA). For immunofluorescence, following the same treatment protocol, cells were fixed with 4 % paraformaldehyde and immunostained. NRP-1 was detected using an anti-NRP-1 primary antibody and an Alexa Fluor® 647-conjugated secondary antibody. Nuclei were stained with DAPI. Imaging was performed using a SpinSR10 spinning disk confocal super-resolution microscope (Olympus, Japan) with the following excitation wavelengths: 405 nm for DAPI; 535 nm for RhB; and 640 nm for NRP-1.

[1] = In vivo and ex vivo fluorescence imaging (biodistribution, blood and lung retention); design: species or system C57BL/6 mice
Protocol: To evaluate the biodistribution and lung targeting of MLT and M-pLNP, two fluorescence imaging experiments were performed in a BLM-induced PF model. In the first study, normal and PF mice (n = 6) received a single intraperitoneal injection of MLT-RhB (or PBS control), and were euthanized 30 min later for collection of major organs. In the second study, PF mice were randomly divided into two groups receiving either MLT-RhB or M-pLNP-RhB. Comprehensive in vivo whole-body fluorescence imaging was performed at multiple time points (10 min, 30 min, 1 h, 3 h and 6 h) after administration. Additionally, ex vivo analysis was conducted by collecting blood samples and lung tissues at […] critical time points (10 min, 30 min, 1 h, 6 h, 12 h, and 24 h). All imaging was performed using an IVIS Lumina XRMS system, in vivo and ex vivo samples were imaged through RhB channels (Ex/Em = 545/570 nm). Mean fluorescence intensity was used to quantitatively assess tissue distribution and lung accumulation.

HUVECs = experiment: Cell viability assay (MTS); assay type: cell-based, Human; settings: 24 h incubation, n = 3
Protocol: Cell viability was assessed using the MTS assay (Promega). Briefly, HUVECs were seeded at 5000 cells/well in triplicate in a 96-well plate. When the density of the cells reached approximately 80 %, MLT at different concentrations was added, and the cells were incubated for 24 h. Then, 20 μL of MTS reagent was added to each well, followed by incubated for 2 h. Absorbance was measured at 490 nm using a microplate reader.

[2] = RhB-labeled, single i.p. injection, PF mice, ex vivo lung fluorescence, n = 3

Compound: MLT-RhB: Rhodamine B-labeled MLT
- mean fluorescence intensity (MFI) of RhB in TGF-β1 group vs control group (uptake) (NRP-1 receptor on HUVECs): significantly higher than that in the control group
- lung radiant efficiency, PF lungs vs control ([1]; MLT-RhB single intraperitoneal injection, ex vivo imaging 30 min post-injection, PF vs normal mice, n = 3): ~1.5 fold

Compound: CC[C@H](C)[C@H](NC(=O)CN)C(=O)NCC(=O)N[C@@H](C)C(=O)N[C@H](C(=O)N[C@@H](CC(C)C)C(=O)N[C@@H](CCCCN)C(=O)N[C@H](C(=O)N[C@@H](CC(C)C)C(=O)N[C@H](C(=O)N[C@H](C(=O)NCC(=O)N[C@@H](CC(C)C)C(=O)N1CCC[C@H]1C(=O)N[C@@H](C)C(=O)N[C@@H](CC(C)C)C(=O)N[C@H](C(=O)N[C@@H](CO)C(=O)N[C@@H](Cc1c[nH]c2ccccc12)C(=O)N[C@H](C(=O)N[C@@H](CCCCN)C(=O)N[C@@H](CCCNC(=N)N)C(=O)N[C@@H](CCCCN)C(=O)N[C@@H](CCCNC(=N)N)C(=O)N[C@@H](CCC(N)=O)C(=O)N[C@@H](CCC(N)=O)C(N)=O)[C@@H](C)CC)[C@@H](C)CC)[C@@H](C)O)[C@@H](C)O)C(C)C)C(C)C [MLT, Melittin]
- concentration at which MLT started to induce cellular toxicity (HUVECs): 8000 ng/mL
- time within which the blood fluorescence signal was nearly undetectable ([1]; RhB-labeled, single i.p. injection, 15 nmol RhB equivalent per mouse, PF mice, blood samples): ≤ 6 h
- time within which the peritoneal fluorescence signal was substantially weakened ([1]; RhB-labeled, single i.p. injection, 15 nmol RhB equivalent per mouse, PF mice, in vivo imaging): 30 min
- time by which lung fluorescence reached near-background levels (clearance) [1, 2]: ≤ 6 h
- time of peak lung accumulation [1, 2]: 30 min
